Literature values as cited in publication PMC4906314, “Direct interaction of beta-amyloid with Na,K-ATPase as a putative regulator of the enzyme function” (Scientific Reports, 2016).

Target: Na,K-ATPase
Details: at the same conditions; read-out: Kd for complexes of Na,K-ATPase with CTS

In the case of C[C@]12CC[C@H](O)C[C@@]1(O)CC[C@@H]1[C@@H]2CC[C@]2(C)[C@@H](c3ccc(=O)oc3)C[C@H]3O[C@]132 [marinobufagenin], the Kd is given as 1500 nM.
